From patent US20210276960A1, “INHIBITORS OF TISSUE TRANSGLUTAMINASE 2 (TG2) AND USES THEREOF” (Northwestern University, priority 2020, published 2021)

Columns and labels:
[1] = system: OVCAR5 cells attachment onto FN; assay: Early attachment assay with IF staining; type: cell-based, human; conditions: 1 μM, 72 hours pre-treatment, 30 minutes after seeding
Protocol: (§1) OVCAR5 cells were seeded(1×10^5 cells/well) in 6-well plates (Denville Scientific) and treated for 72 hrs with 1 μM MT-4, TG53 or vehicle control (DMSO). After drug exposure, cells were detached using Cellstripper (cellgro, #25-056-CI, CORNING, Manassas, Va., USA), centrifuged, and counted. Before seeding for either confocal microscopy or western blotting, they were incubated in serum free media in the presence of drugs for 15-90 minutes, as stated in the figure legends.
In order to analyze cell adhesion complex proteins expression and localization upon early attachment, cells were treated as stated above and then seeded onto FN-coated cover slips for 30 minutes at 37° C. Samples were fixed in 4% p-formaldehyde (PFA) and permeabilized with 0.2% Triton-X-100. After blocking, focal contacts were identified by using anti-vinculin antibodies, activation of integrins signaling pathway was assessed by antibodies against phosphorylated focal adhesion kinase (FAK), while actin cytoskeleton was labeled by Alexa Fluor 488-conjugated phalloidin (Life Technologies, #A12379). Nuclei were stained with 1:10000 Hoechst (Thermo Scientific) and specimens were mounted in Prolong Gold anti-fadereagent (Life Technologies). Cells were analyzed by laser scanning using a Nikon A1RGaAsPConfocal Laser Microscope. For co-localization analyses, SKOV3 cells were treated with DMSO (control) or TG53 (1 μM) and plated on FN-coated chamber slides (BD Biosciences) for 72 hrs. IF analysis was performed as previously described (Condello et al., 2013b). Briefly, after fixation, permeabilization and blocking, cells were incubated overnight with p-FAK (Y576/577), c-Src, p-Src (Y416), integrin β1 or TG2 primary antibodies in blocking buffer at 4° C., followed by 1 h incubation with Cy5-conjugated anti-mouse secondary antibody (1:500; Zymed Laboratories; South San Francisco, Calif., USA) or Alexa Fluor 488 anti-rabbit secondary antibody (1:1000; Molecular Probes, Eugene, Oreg., USA) at RT. Isotype-specific IgG was used as a negative control. Nuclei were visualized by 4′,6-diamidino-2-phenylindole (DAPI) staining (Vectashield; Vector Laboratories, Burlingame, Calif., USA). Analysis was done using an LSM 510 META confocal multiphoton microscope system (Carl Zeiss Inc., Thomwood, N.Y., USA) under UV excitation at 630 nm (for Cy5), 488 nm (for Alexa Fluor 488), and 340 nm (for DAPI) and using a 60× magnification objective. Colocalization percentage was calculated by normalizing the pixels corresponding to Cy5 or Alexa Fluor 488 emissions to DAPI pixels in the same cell, followed by merging area of green with area of red and determination of average of overlap areas. A Student' t test was calculated to determine statistical significance of differences between drug treated and DMSO control treated cells.

OVCAR5 cells = assay: Sphere forming assay after priming, with paclitaxel; type: cell-based, human; conditions: priming with 1 μM, with 5 nM PTX
Protocol: After 72 h priming with either 1 μM MT-4, TG53 or vehicle (DMSO), 150 OVCAR5 cells were seeded in 60 mm dishes and treated or not with paclitaxel (PTX, Sigma). Colonies were allowed to form over 10 days, fixed in 4% PFA and stained with 0.4% crystal violet (MP Biomedicals). Colonies were counted, and analysis was performed using the ImageJ software ([…]).Spheroid cultures were carried out as previously described(Condello et al., 2015). Briefly, OC cells were resuspended in Mammocult complete medium (StemCell Technologies) supplemented with Mammocult Proliferation Supplements, heparin and hydrocortisone (StemCell Technologies) and seeded at a concentration of 10,000 cells/well in 96-well ultra-low attachment plates (Corning, Corning, N.Y., USA). After treatment with DMSO (control) or TG53 (1 μM) for 7 days, spheroids were counted and quantified by the CCK-8 assay. All assays were performed in four replicates and were repeated. For priming before PTX treatment, cells were manipulated as described for CFU assay and then seeded in 6-well low-attachment plate (Corning, #3473) at 7000 cells/mL/well and allowed to form spheroids in complete Mammocult media. Spheres were counted after ten days from 4 replicate wells. Two independent experiments were performed.

[2] = system: FAK and ERK phosphorylation in OVCAR5 cells; assay: Western blotting, time course after attachment to FN; type: cell-based, human; conditions: 5 μM
Protocol: FIG. 5. Effects of SMIs targeting the TG2/FN complex on “outside-in” signaling and adhesion to mesothelial surfaces. A, Western blot analysis of total and phosphorylated FAK and ERK was performed using cell lysates extracted from OVCAR cells plated on FN for 15 to 45 minutes in the presence of TG53 (left) or MT-4 (right) at 5 μM concentration, as compared to DMSO. GAPDH was used as a control. OVCAR5 cells had been pretreated with the inhibitors for 72 hours. Densitometry analysis used the Quantity One software and results were normalized to GAPDH loading controls. DMSO 0 min time point was considered as 1 for comparative analysis. Values are shown for each band. B, A modified cell adhesion assay measured the effects of TG53, MT-4, MT-5, and MT-6 (25 μM) on SKOV3 cells' adhesion onto semi-confluent LP9 monolayers. C, Dose-dependent effects of TG53, MT-4, MT-5, and MT-6 on OVCAR433 cells adhesion onto semi-confluent LP9 monolayers. D-E, Wound healing assay measures migration of SKOV3 and OVCAR5 cells in the presence of MT-4, MT-5, MT-6 at a concentration of 8 μM (black bars) or vehicle (open bar). Migration rate was determined over a period of 24 hours by measuring the average distance between the wound borders at the beginning and at the end of the assay interval (n=4). F-G, SKOV3-GFP OC cells were injected ip in NSG mice in the presence of either MT-4 ([…]) (F) or MT-6 ([…]) (G) and allowed to attach to the peritoneal wall. After 2 hours, the cell suspension was recovered from the peritoneal cavity through peritoneal washings and the non-attached OC cells recovered were counted. *p<0.05, **p<0.01, ***p<0.001, ****p<0.0001.
as §1
Cells pre-treated as stated above were seeded in 60 mm dishes coated with 5 μg/mL FN and serially harvested at 15, 30, and 45 minutes, − or left unattached (0 min), in cold RIPA buffer. Lysates were separated by SDS-PAGE, transferred onto PVDF membranes (Bio-Rad), incubated with primary and secondary antibodies and developed by using SuperSignal™ West Femto Maximum Sensitivity Substrate and Pierce™ ECL Western Blotting Substrate, respectively (Thermo Scientific). […] Densitometry analysis was performed using Quantity One software (Bio-Rad) and results were normalized to GAPDH loading controls. […]

SKOV3 cells = conditions: cited from earlier work

Structure (SMILES) | FAK phosphorylation (IF) [1] | number of focal contacts with FN-coated substrate (vinculin) [1] | cell proliferation as spheres (OVCAR5 cells) | ERK phosphorylation, time course ([2]; 15 to 45 minutes on FN) | FAK phosphorylation, time course ([2]; 15 to 45 minutes on FN) | cytotoxicity (SKOV3 cells) | time of peak FAK activation post cell seeding on FN ([2]; control 15 minutes) [min]
Cc1cc(N(C)C)nc(Nc2ccc(NC(=O)Cc3ccccc3)cc2)n1 [MT-4] | decreased | decreased | more potently than PTX alone or PTX and TG53 | inhibited and delayed | more evident |  | 
COc1ccc(Cl)cc1C(=O)Nc1ccc(Nc2nc(C)cc(N(C)C)n2)cc1 [TG53] | decreased | decreased |  |  | modestly delayed | not cytotoxic | 30
